# Experimental data as given in ChEMBL document CHEMBL4152326 (2018).
# Experiments:
# Assay type in all cases: functional
# [1] = tested on: Pseudomonas aeruginosa; experiment: Antimicrobial activity against IMP-1 producing Pseudomonas aeruginosa SR27001 in presence of human apo-transferrin by broth microdilution method
# [2] = tested on: Acinetobacter baumannii; experiment: Antimicrobial activity against OXA-23/OXA-58 producing Acinetobacter baumannii SR27323 in presence of human apo-transferrin by broth microdilution method
# [3] = tested on: Klebsiella pneumoniae; experiment: Antimicrobial activity against KPC-2 producing Klebsiella pneumoniae ATCC BAA-1705 in presence of human apo-transferrin by broth microdilution method
# [4] = tested on: Pseudomonas aeruginosa; experiment: Antimicrobial activity against IMP-1 producing Pseudomonas aeruginosa SR27060 in presence of human apo-transferrin by broth microdilution method
# [5] = tested on: Stenotrophomonas maltophilia; experiment: Antimicrobial activity against L-1 producing Stenotrophomonas maltophilia SR21970 in presence of human apo-transferrin by broth microdilution method
# [6] = tested on: Pseudomonas aeruginosa; experiment: Antimicrobial activity against VIM-2 producing Pseudomonas aeruginosa SBRKM-28 in presence of human apo-transferrin by broth microdilution method
# [7] = tested on: Pseudomonas aeruginosa; experiment: Antimicrobial activity against Pseudomonas aeruginosa SR24 in presence of human apo-transferrin by broth microdilution method
# [8] = tested on: Escherichia coli; experiment: Antimicrobial activity against SHV-4 producing Escherichia coli ATCC BAA-200 in presence of human apo-transferrin by broth microdilution method
# [9] = tested on: Pseudomonas aeruginosa; experiment: Antimicrobial activity against Pseudomonas aeruginosa 27060deltaR1 harboring deletion of R1 plasmid in presence of human apo-transferrin by broth microdilution method
# [10] = tested on: Pseudomonas aeruginosa; experiment: Antimicrobial activity against AmpC overproducing Pseudomonas aeruginosa SR24-12 in presence of human apo-transferrin by broth microdilution method
SMILES,MIC [1],MIC [2],MIC [3],MIC [4],MIC [5],MIC [6],MIC [7],MIC [8],MIC [9],MIC [10]
CC(C)(O/N=C(\C(=O)N[C@@H]1C(=O)N2C(C(=O)[O-])=C(C[n+]3ccc(NC(=O)c4ccc(O)c(O)c4Cl)cc3)CS[C@H]12)c1csc(N)n1)C(=O)O,2 µg/mL,2 µg/mL,0.25 µg/mL,2 µg/mL,1 µg/mL,0.125 µg/mL,0.063 µg/mL,2 µg/mL,0.5 µg/mL,0.25 µg/mL
CC(C)(O/N=C(\C(=O)N[C@@H]1C(=O)N2C(C(=O)[O-])=C(C[N+]3(CCNC(=O)c4ccc(O)c(O)c4Cl)CCCC3)CS[C@H]12)c1nsc(N)n1)C(=O)O,1 µg/mL,,,1 µg/mL,0.25 µg/mL,0.25 µg/mL,0.25 µg/mL,,0.25 µg/mL,0.25 µg/mL
CC(C)(O/N=C(\C(=O)N[C@@H]1C(=O)N2C(C(=O)[O-])=C(C[N+]3(Cc4nnc(-c5ccc(O)c(O)c5Cl)o4)CCCC3)CS[C@H]12)c1csc(N)n1)C(=O)O,2 µg/mL,,,2 µg/mL,0.5 µg/mL,0.125 µg/mL,0.5 µg/mL,,0.5 µg/mL,0.5 µg/mL
CC(C)(O/N=C(\C(=O)N[C@@H]1C(=O)N2C(C(=O)[O-])=C(C[N@+]34CCC[C@H]3CN(C(=O)c3ccc(O)c(O)c3Cl)CC4)CS[C@H]12)c1csc(N)n1)C(=O)O,0.5 µg/mL,2 µg/mL,0.063 µg/mL,4 µg/mL,0.5 µg/mL,0.25 µg/mL,0.25 µg/mL,2 µg/mL,1 µg/mL,0.5 µg/mL
Nc1nc(/C(=N/O[C@@H](CC(=O)O)C(=O)O)C(=O)N[C@@H]2C(=O)N3C(C(=O)[O-])=C(C[N+]4(CCNC(=O)c5ccc(O)c(O)c5Cl)CCCC4)CS[C@H]23)cs1,1 µg/mL,1 µg/mL,0.063 µg/mL,1 µg/mL,0.25 µg/mL,0.063 µg/mL,0.25 µg/mL,1 µg/mL,0.5 µg/mL,0.25 µg/mL
CC(C)(O/N=C(\C(=O)N[C@@H]1C(=O)N2C(C(=O)[O-])=C(C[N+]3(CCNC(=O)c4ccc(O)c(O)c4Cl)CCCC3)CS[C@H]12)c1nc(N)sc1Cl)C(=O)O,1 µg/mL,2 µg/mL,0.063 µg/mL,1 µg/mL,2 µg/mL,0.125 µg/mL,0.25 µg/mL,1 µg/mL,1 µg/mL,0.5 µg/mL
CC(C)(O/N=C(\C(=O)N[C@@H]1C(=O)N2C(C(=O)[O-])=C(C[N+]3(C)C[C@H]4C[C@@H]3CN4C(=O)c3ccc(O)c(O)c3Cl)CS[C@H]12)c1csc(N)n1)C(=O)O (stereo partly specified),2 µg/mL,,,4 µg/mL,0.5 µg/mL,0.25 µg/mL,0.25 µg/mL,,2 µg/mL,0.5 µg/mL
COc1c(O)ccc(C(=O)NCC[N+]2(CC3=C(C(=O)[O-])N4C(=O)[C@@H](NC(=O)/C(=N\OC(C)(C)C(=O)O)c5csc(N)n5)[C@H]4SC3)CCCC2)c1Cl,32 µg/mL,> 32 µg/mL,4 µg/mL,,28 µg/mL,16 µg/mL,2 µg/mL,16 µg/mL,,8 µg/mL
C[N+]1(CC2=C(C(=O)[O-])N3C(=O)[C@@H](NC(=O)/C(=N\OC[C@H](NC(=O)c4ccc(O)c(O)c4Cl)C(=O)O)c4csc(N)n4)[C@H]3SC2)CCCC1,4 µg/mL,,,4 µg/mL,8 µg/mL,0.125 µg/mL,0.125 µg/mL,,2 µg/mL,1 µg/mL
CC(C)(O/N=C(\C(=O)N[C@@H]1C(=O)N2C(C(=O)[O-])=C(C[N+]34CCC(CC3)N(C(=O)c3ccc(O)c(O)c3Cl)CC4)CS[C@H]12)c1csc(N)n1)C(=O)O,1 µg/mL,,,4 µg/mL,0.125 µg/mL,0.125 µg/mL,0.25 µg/mL,,1 µg/mL,0.25 µg/mL
CC(C)(O/N=C(\C(=O)N[C@@H]1C(=O)N2C(C(=O)[O-])=C(C[N+]3(CCNC(=O)c4ccc(O)c(O)c4Cl)CCCCC3)CS[C@H]12)c1csc(N)n1)C(=O)O,1 µg/mL,1 µg/mL,0.031 µg/mL,2 µg/mL,0.25 µg/mL,0.125 µg/mL,0.25 µg/mL,0.5 µg/mL,1 µg/mL,0.25 µg/mL
CC(C)(O/N=C(\C(=O)N[C@@H]1C(=O)N2C(C(=O)[O-])=C(C[N+]3(CCCNC(=O)c4ccc(O)c(O)c4Cl)CCCC3)CS[C@H]12)c1csc(N)n1)C(=O)O,1 µg/mL,,,1 µg/mL,0.125 µg/mL,0.125 µg/mL,0.5 µg/mL,,0.25 µg/mL,0.5 µg/mL
CC(C)(O/N=C(\C(=O)N[C@@H]1C(=O)N2C(C(=O)[O-])=C(C[N+](C)(C)C3CCN(C(=O)c4ccc(O)c(O)c4Cl)CC3)CS[C@H]12)c1csc(N)n1)C(=O)O,4 µg/mL,2 µg/mL,0.125 µg/mL,4 µg/mL,1 µg/mL,0.5 µg/mL,0.5 µg/mL,2 µg/mL,1 µg/mL,1 µg/mL
CC(C)(O/N=C(\C(=O)N[C@@H]1C(=O)N2C(C(=O)[O-])=C(C[n+]3cc(NC(=O)c4ccc(O)c(O)c4Cl)c4n3CCN4)CS[C@H]12)c1csc(N)n1)C(=O)O,16 µg/mL,0.5 µg/mL,0.125 µg/mL,16 µg/mL,> 16 µg/mL,0.5 µg/mL,0.25 µg/mL,1 µg/mL,0.5 µg/mL,0.5 µg/mL
CC(C)(O/N=C(\C(=O)N[C@@H]1C(=O)N2C(C(=O)[O-])=C(C[N@@+]3(C)C[C@H]4CN(C(=O)c5ccc(O)c(O)c5Cl)C[C@H]4C3)CS[C@H]12)c1csc(N)n1)C(=O)O,4 µg/mL,,,4 µg/mL,0.5 µg/mL,0.125 µg/mL,0.25 µg/mL,,0.5 µg/mL,0.25 µg/mL
CN(CC[N+]1(CC2=C(C(=O)[O-])N3C(=O)[C@@H](NC(=O)/C(=N\OC(C)(C)C(=O)O)c4csc(N)n4)[C@H]3SC2)CCCC1)C(=O)c1ccc(O)c(O)c1Cl,1 µg/mL,,,1 µg/mL,0.25 µg/mL,0.125 µg/mL,0.5 µg/mL,,0.5 µg/mL,0.5 µg/mL
CC(C)(O/N=C(\C(=O)N[C@@H]1C(=O)N2C(C(=O)[O-])=C(C[N+]3(CCC(=O)Nc4ccc(O)c(O)c4Cl)CCCC3)CS[C@H]12)c1csc(N)n1)C(=O)O,2 µg/mL,2 µg/mL,0.25 µg/mL,2 µg/mL,1 µg/mL,0.25 µg/mL,0.25 µg/mL,2 µg/mL,1 µg/mL,0.5 µg/mL
Nc1nc(/C(=N/OCc2cccc(C(=O)O)c2)C(=O)N[C@@H]2C(=O)N3C(C(=O)[O-])=C(C[N+]4(CCNC(=O)c5ccc(O)c(O)c5Cl)CCCC4)CS[C@H]23)cs1,1 µg/mL,0.5 µg/mL,2 µg/mL,8 µg/mL,2 µg/mL,0.125 µg/mL,0.25 µg/mL,16 µg/mL,2 µg/mL,0.5 µg/mL
C[C@@H](C[N+]1(CC2=C(C(=O)[O-])N3C(=O)[C@@H](NC(=O)/C(=N\OC(C)(C)C(=O)O)c4csc(N)n4)[C@H]3SC2)CCCC1)NC(=O)c1ccc(O)c(O)c1Cl,1 µg/mL,,,2 µg/mL,0.25 µg/mL,0.125 µg/mL,0.25 µg/mL,,0.25 µg/mL,0.25 µg/mL
Nc1nc(/C(=N/O[C@H](C(=O)O)c2ccccc2)C(=O)N[C@@H]2C(=O)N3C(C(=O)[O-])=C(C[N+]4(CCNC(=O)c5ccc(O)c(O)c5Cl)CCCC4)CS[C@H]23)cs1,0.5 µg/mL,0.25 µg/mL,0.031 µg/mL,4 µg/mL,0.25 µg/mL,0.125 µg/mL,0.25 µg/mL,0.5 µg/mL,0.5 µg/mL,0.25 µg/mL
C[C@H](O/N=C(\C(=O)N[C@@H]1C(=O)N2C(C(=O)[O-])=C(C[N+]3(CCNC(=O)c4ccc(O)c(O)c4Cl)CCCC3)CS[C@H]12)c1csc(N)n1)C(=O)O,1 µg/mL,1 µg/mL,0.063 µg/mL,2 µg/mL,0.5 µg/mL,0.125 µg/mL,0.25 µg/mL,4 µg/mL,1 µg/mL,0.25 µg/mL
CC(C)(O/N=C(\C(=O)N[C@@H]1C(=O)N2C(C(=O)[O-])=C(C[N+]3(CCNC(=O)c4[nH]cc(O)c(=O)c4Cl)CCCC3)CS[C@H]12)c1csc(N)n1)C(=O)O,,32 µg/mL,2 µg/mL,> 32 µg/mL,4 µg/mL,4 µg/mL,2 µg/mL,16 µg/mL,8 µg/mL,24 µg/mL
CC(C)(O/N=C(\C(=O)N[C@@H]1C(=O)N2C(C(=O)[O-])=C(C[n+]3ccc(-c4ccc(O)c(O)c4Cl)cc3)CS[C@H]12)c1csc(N)n1)C(=O)O (stereo in doubt),> 64 µg/mL,,,16 µg/mL,1 µg/mL,0.25 µg/mL,,,,
CC(C)(O/N=C(\C(=O)N[C@@H]1C(=O)N2C(C(=O)[O-])=C(C[N+]3(CCNC(=O)Nc4ccc(O)c(O)c4Cl)CCCC3)CS[C@H]12)c1csc(N)n1)C(=O)O,4 µg/mL,,,8 µg/mL,4 µg/mL,0.5 µg/mL,1 µg/mL,,2 µg/mL,1 µg/mL
